Measurements published in article PMC6273194, “Synthesis and Evaluation of Aminothiazole-Paeonol Derivatives as Potential Anticancer Agents” (Molecules, 2016).
Where two headings read alike, the source gives them in different places.

Tests used:
[1] = test system: human lung adenocarcinoma (A549) cells; test: MTT cell viability assay, A549; assay type: cell-based; conditions: A549, 48 h
Procedure: (§1) Cell lines, including human gastric adenocarcinoma (AGS), human cervix adenocarcinoma (HeLa), human pancreas adenocarcinoma (PaTu8988t), human colorectal adenocarcinoma (HT-29), human glioblastoma (U87-MG), human lung adenocarcinoma (A549), mouse colon carcinoma (CT26.WT) cells and embryonic fibroblast (BALB/3T3) were purchased from Bioresource Collection and Research Center (BCRC, Taiwan) to evaluate anticancer activity of aminothiazole-paeonol derivatives. Five cell lines were cultured in different media from Gibco (Life Technologies, Grand Island, NY, USA) and Hyclone (GE Healthcare Life Science). Cells were cultured in 90% medium mixed with 10% serum at 37 °C in humidified atmosphere with 5% CO2 and grown in T-75 flask with a feeding cycle of two to three days. The composition and procedures of preparing culture media for different cell lines were followed by instruction manual of suppliers.
(§2) The different cell lines were seeded into 96-well tissue culture plates at a concentration of 5 × 10^3 cells/100 µL/well overnight. Subsequently, the cells were treated with serial concentrations of seven paeonol derivatives. After 48 h of incubation, cell viability of each cell line was determined by MTT colorimetric assay. Briefly, 100 µL of 2 mg/mL MTT reagent (Sigma-Aldrich, St. Louis, MO, USA) was added to each well and incubated for 4 h at 37 °C. Later, the medium was aspirated and 100 µL of dimethyl sulphoxide (DMSO) added to each well; finally, the OD595 of each well was measured by ELISA reader (TECAN, Wien, Austria).

[2] = test system: human gastric adenocarcinoma (AGS) cells; test: MTT cell viability assay, AGS; assay type: cell-based; conditions: 48 h
Procedure: as §1, §2

[3] = test system: human colorectal adenocarcinoma (HT-29) cells; test: MTT cell viability assay, HT-29; assay type: cell-based; conditions: HT-29, 48 h
Procedure: as §1, §2

BALB/3T3 cells [4] = test: MTT cell viability assay, embryonic fibroblast BALB/3T3; assay type: cell-based; conditions: Mus musculus, BALB/3T3 fibroblasts, 48 h
Procedure: as §1, §2

[5] = test system: human glioblastoma (U87-MG) cells; test: MTT cell viability assay, U87-MG; assay type: cell-based; conditions: U-87 MG, 48 h
Procedure: as §1, §2

[6] = test system: mouse colon carcinoma (CT26.WT) cells; test: MTT cell viability assay, CT26.WT; assay type: cell-based; conditions: 48 h
Procedure: as §1, §2

[7] = test system: human cervix adenocarcinoma (HeLa) cells; test: MTT cell viability assay, HeLa; assay type: cell-based; conditions: 48 h
Procedure: as §1, §2

[8] = test system: human pancreas adenocarcinoma (PaTu8988t) cells; test: MTT cell viability assay, PaTu8988t; assay type: cell-based; conditions: PaTu 8988t, 48 h
Procedure: as §1, §2

[9] = test system: human lung adenocarcinoma (A549) cells; conditions: A549, 48 h after treatment; ref [25],[26],[27],[28],[29],[30],[31],[32]; cited from earlier work
[10] = test system: human pancreas adenocarcinoma (PaTu8988t) cells; conditions: 48 h after treatment, ref [25],[26],[27],[28],[29],[30],[31],[32]; cited from earlier work
[11] = test system: human gastric adenocarcinoma (AGS) cells; conditions: 24 h after treatment, ref [25],[26],[27],[28],[29],[30],[31],[32]; cited from earlier work
[12] = test system: mouse colon carcinoma (CT26.WT) cells; conditions: 72 h after treatment, ref [25],[26],[27],[28],[29],[30],[31],[32]; cited from earlier work
BALB/3T3 cells [13] = conditions: BALB/3T3, 72 h after treatment; ref [25],[26],[27],[28],[29],[30],[31],[32]; cited from earlier work
[14] = test system: human colorectal adenocarcinoma (HT-29) cells; conditions: HT-29, 48 h after treatment; ref [25],[26],[27],[28],[29],[30],[31],[32]; cited from earlier work
[15] = test system: human cervix adenocarcinoma (HeLa) cells; conditions: 48 h after treatment, ref [25],[26],[27],[28],[29],[30],[31],[32]; cited from earlier work
[16] = test system: human glioblastoma (U87-MG) cells; conditions: 48 h after treatment, ref [25],[26],[27],[28],[29],[30],[31],[32]; cited from earlier work

SMILES | IC50 [1] [µM] | IC50 [2] [µM] | IC50 [3] [µM] | IC50 [5] [µM] | IC50 [6] [µM] | IC50 [7] [µM] | IC50 [8] [µM] | IC50 (BALB/3T3 cells [4]) [µM] | IC50 [9] [µM] | IC50 [10] [µM] | IC50 [11] [µM] | IC50 [12] [µM] | IC50 (BALB/3T3 cells [13]) [µM] | IC50 [14] [µM] | IC50 [15] [µM] | IC50 [16] [µM]
COc1ccc(-c2csc(NS(=O)(=O)c3ccc([N+](=O)[O-])cc3)n2)c(O)c1 [Compound 13g, N-[4-(2-Hydroxy-4-methoxyphenyl)thiazol-2-yl]-4-nitrobenzenesulfonamide] | > 50 | > 50 | 47.8 | > 50 | 30 | > 50 | > 50 | 32.2 | – | – | – | – | – | – | – | –
COc1ccc(-c2csc(NS(=O)(=O)c3ccc(C)cc3)n2)c(O)c1 [Compound 13b, N-[4-(2-Hydroxy-4-methoxyphenyl)thiazol-2-yl]-4-methylbenzenesulfonamide] | > 50 | 22 | 14.1 | > 50 | > 50 | 27.4 | 38.7 | > 50 | – | – | – | – | – | – | – | –
COc1ccc(S(=O)(=O)Nc2nc(-c3ccc(OC)cc3O)cs2)cc1 [Compound 13c, N-[4-(2-Hydroxy-4-methoxyphenyl)thiazol-2-yl]-4-methoxybenzenesulfonamide] | > 50 | 4 | 4.4 | 22.5 | 10 | 5.8 | 15.8 | 32.7 | – | – | – | – | – | – | – | –

Further lines, with some results ahead:

IC50 [1] [µM] | IC50 [2] [µM] | IC50 [3] [µM] | IC50 [5] [µM] | IC50 [6] [µM] | IC50 [7] [µM] | IC50 [8] [µM] | SMILES | IC50 (BALB/3T3 cells [4]) [µM] | IC50 [9] [µM] | IC50 [10] [µM] | IC50 [11] [µM] | IC50 [12] [µM] | IC50 (BALB/3T3 cells [13]) [µM] | IC50 [14] [µM] | IC50 [15] [µM] | IC50 [16] [µM]
> 50 | > 50 | 20.7 | > 50 | > 50 | > 50 | 31.1 | COc1ccc(-c2csc(NS(=O)(=O)c3ccccc3)n2)c(O)c1 [Compound 13a, N-[4-(2-Hydroxy-4-methoxyphenyl)thiazol-2-yl]benzenesulfonamide] | > 50 | – | – | – | – | – | – | – | –
> 50 | 43.8 | 7.2 | > 50 | 9.2 | 2.2 | 12.5 | O=c1[nH]cc(F)c(=O)[nH]1 [Compound 5-FU, 5-fluorouracil, reference compound] | 1 | 10.3 | 11.3 | 79.5 | 61 | 13 | 19.3 | 0.232 | 4.9
> 50 | > 50 | 11 | > 50 | > 50 | 16.4 | 22.8 | COc1ccc(-c2csc(NS(=O)(=O)c3ccc(Br)cc3)n2)c(O)c1 [Compound 13f, 4-Bromo-N-[4-(2-hydroxy-4-methoxyphenyl)thiazol-2-yl]benzenesulfonamide] | > 50 | – | – | – | – | – | – | – | –
> 50 | 7.2 | 11.2 | > 50 | > 50 | 13.8 | 31.4 | COc1ccc(-c2csc(NS(=O)(=O)c3ccc(F)cc3)n2)c(O)c1 [Compound 13d, 4-Fluoro-N-[4-(2-hydroxy-4-methoxyphenyl)thiazol-2-yl]benzenesulfonamide] | > 50 | – | – | – | – | – | – | – | –
> 50 | > 50 | 13.4 | > 50 | > 50 | > 50 | > 50 | COc1ccc(-c2csc(NS(=O)(=O)c3ccc(Cl)cc3)n2)c(O)c1 [Compound 13e, 4-Chloro-N-[4-(2-hydroxy-4-methoxyphenyl)thiazol-2-yl]benzenesulfonamide] | > 50 | – | – | – | – | – | – | – | –
